Values quoted from earlier work in patent US20220265689A1, “HIV PRE-EXPOSURE PROPHYLAXIS” (THE UNITED STATES OF AMERICA ,AS REPRESENTED BY THE …, priority 2019, published 2022).

Tested on: HIV-1
Details: HIV-1 T cells, activated PBMCs, macrophages

For `CC(C)OC(=O)[C@H](C)N[P@](=O)(CO[C@H](C)Cn1cnc2c(N)ncnc21)Oc1ccccc1` [TAF, tenofovir alafenamide], which “enhanced anti-HIV activity relative to tenofovir” value is on record?
The value was 500- to 10300 fold.
